Results from publication PMC11054528, “Evaluation of Physicochemical Properties of Ipsapirone Derivatives Based on Chromatographic and Chemometric Approaches” (Molecules, 2024).

Key:
[1] = calibration mixture for IAM-HPLC, reference CHI value; column head printed CHI C18; cited from earlier work
[2] = target: T1, human serum albumin (HSA) (Homo sapiens, UniProt P02768); settings: calibration mixture for HSA-HPLC, reference value; column head printed CHI C18; cited from earlier work
[3] = calibration mixture for C18-HPLC, reference CHI value; cited from earlier work
[4] = Fast gradient RP-HPLC on C18 column (CHI lipophilicity); type: physicochemical; settings: for CHIC18 pH = 2.6 / CHIC18 pH = 7.4 / CHIC18 pH = 10.6: C18 column; for CHI LogP: from chromatographically determined CHI on nonionized forms (pH 10.6), CHI LogP = 0.054 × CHI − 1.467
Text: Considering the significant differences in the calculations obtained, the next step of our investigation considered the determination of lipophilicity using a chromatographic approach. Among the available protocols, the fast gradient approach developed by Valko was chosen because it enables the assessment of lipophilicity from a single chromatographic measurement. In addition, this approach enables the determination of the acid/basic properties of molecules through the addition of experiments under different pH conditions.
Therefore, the CHI under pH10.6 can be considered and converted to chromatographically determined LogP, called CHI LogP. A cluster analysis (CA) was performed to compare chromatographically determined and calculated lipophilicity. A CA can be used for the visualization of similarities and differences between studied objects, in this case, lipophilic parameters. The obtained results clearly indicate that significant differences between theoretical and experimental data occurred, and they formed two separate groups (Figure 1). The differences are also visible on the calculated correlation matrix (Figure 2).
For RP-HPLC experiments, a C18 Hypersil GOLD^TM (50 mm × 4.6 mm; 5.0 µm with a guard column; Thermo Scientific, Waltham, MA, USA) column was applied. The column temperature was set to 40 °C. Three water solutions were used as mobile phase A: acetic acid at pH 2.6, […] at pH 7.4, and 50 mM ammonium acetate at pH 10.5. Mobile phase B was acetonitrile (ACN). The linear gradient from 2 to 98% ACN was applied from 0 to 5.25 min and held at 98% ACN for 1.75. The mobile phase flow rate was 1.5 mL/min throughout the experiment.

[5] = IAM-HPLC, immobilized artificial membrane chromatography (affinity to phospholipids); type: physicochemical; parameters: scale not given here; settings: IAM.PC.DD2 column, pH 7.4
Text: In considering that lipophilicity is a known factor influencing passive diffusion across the BBB, this is an important observation. The affinity to phospholipids can also be determined using one-gradient protocols and the IAM column. CHIIAM can be used as a cut-off point to indicate the potential for promiscuous binding and interference with phospholipids.
The immobilized artificial membrane column (IAM.PC.DD2, 10 × 4.6 mm × 10.0 µm with a guard column (Regis Technologies; Morton Grove, IL, USA) was used for IAM-HPLC experiments. The column temperature was set to 30 °C. Similar to RP-HPLC, mobile phase A was a 50 mM ammonium acetate at pH 7.4, and mobile phase B was acetonitrile. The linear gradient from […] ACN was applied from 0 to 5.25 min and held at 98% ACN for 0.5 min at a constant flow rate of 1.5 mL/min.

[6] = target: T1, human serum albumin (HSA); test: HSA-HPLC, biomimetic chromatography on Chiralpak HSA column; type: in vitro ADME; parameters: purchased Daicel Chiral Technologies, West Chester, PA, USA; settings: for LogKHSA: pH 7.4; for %HSA: pH 7.4, recalculated from logKHSA
Text: Utilizing columns modified by plasma proteins, such as human serum albumin (HSA), allows for estimating binding to plasma protein (PPB). Generally, PPB affects drug pharmacokinetics, including distribution, half-life, and clearance. While lipophilicity is a well-known factor in determining PPB, it should also be considered in early drug discovery. In general, more lipophilic compounds tend to have higher percentages of PP due to nonspecific interactions with proteins. However, hydrophilic compounds can also bind strongly to PP through […] and electrostatic interactions by binding in protein pockets.
For HSA-HPLC experiments, the column was Chiralpak® HSA (100 × 4 mm; 5 µm with safety guard column; Daicel Chiral Technologies, West Chester, PA, USA). The column temperature was set to 30 °C. The same phase A as in the IAM-HPLC case was used, and the mobile phase B was isopropanol (i-PrOH). The linear gradient from 0 to 20% i-PrOH was applied from 0 to 15 min, held at 20% i-PrOH for 12 min, and then returned to pure ammonium acetate solution. The mobile phase flow rate was 0.9 mL/min throughout the experiment. Three minutes of column recalibration was applied between each run. The retention times were collected at wavelengths between 190 and 300 nm, and the injection volume was 10 μL.

T1 sequence (P02768 25-609): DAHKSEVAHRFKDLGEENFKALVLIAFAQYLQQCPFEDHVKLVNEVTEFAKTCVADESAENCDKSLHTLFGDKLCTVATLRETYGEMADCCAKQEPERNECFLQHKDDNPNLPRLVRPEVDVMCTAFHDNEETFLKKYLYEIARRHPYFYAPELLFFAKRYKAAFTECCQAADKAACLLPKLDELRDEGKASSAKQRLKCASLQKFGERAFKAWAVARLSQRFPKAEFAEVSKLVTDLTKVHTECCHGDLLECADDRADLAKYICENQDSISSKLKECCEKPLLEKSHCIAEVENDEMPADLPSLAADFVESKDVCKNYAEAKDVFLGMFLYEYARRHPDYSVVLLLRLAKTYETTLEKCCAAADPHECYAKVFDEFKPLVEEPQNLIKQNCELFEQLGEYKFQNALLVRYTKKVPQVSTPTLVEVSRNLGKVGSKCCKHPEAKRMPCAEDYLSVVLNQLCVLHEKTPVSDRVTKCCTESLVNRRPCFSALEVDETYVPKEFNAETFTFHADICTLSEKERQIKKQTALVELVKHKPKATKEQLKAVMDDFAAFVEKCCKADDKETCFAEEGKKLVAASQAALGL

CCCCCCCC(=O)c1ccccc1 [Octanophenone]
CHI (IAM-HPLC calibration) [1]: 49.4

CC(=O)Nc1ccccc1 [Acetanilidine]
CHI (IAM-HPLC calibration) [1]: 11.5

CC(=O)Nc1ccc(O)cc1 [Paracetamol]
CHI (IAM-HPLC calibration) [1]: 2.9

CCCCCC(=O)c1ccccc1 [Hexanophenone]
CHI (IAM-HPLC calibration) [1]: 41.8

CC(=O)c1ccccc1 [Acetophenone]
CHI (IAM-HPLC calibration) [1]: 17.2

CNC(=C[N+](=O)[O-])NCCSCc1csc(CN(C)C)n1 [Nizatidine]
HSA binding (HSA-HPLC calibration) [2]: 35.0%

CCCCCCC(=O)c1ccccc1 [Heptanophenone]
CHI (IAM-HPLC calibration) [1]: 45.7

CCCC(=O)c1ccccc1 [Butyrophenone]
CHI (IAM-HPLC calibration) [1]: 32.0

CCC(=O)c1ccccc1 [Propiophenone]
CHI C18 [3]: 77.5
CHI (IAM-HPLC calibration) [1]: 25.9

CCCCC(=O)c1ccccc1 [Valerophenone]
CHI (IAM-HPLC calibration) [1]: 37.3

O=C1c2ccccc2S(=O)(=O)N1CCCCN1CCN(c2ccc(Cl)cc2)CC1 [molecule 4]
CHIC18 pH = 2.6 [4]: 56.31
CHIC18 pH = 7.4 [4]: 100.82
CHIC18 pH = 10.6 [4]: 100.70
CHI LogP [4]: 3.97
CHIIAM [5]: 42.61
LogKHSA [6]: 1.32
%HSA [6]: 96.38%

O=C1c2ccccc2S(=O)(=O)N1CCCCCCN1CCN(c2cccc(Cl)c2)CC1 [molecule 16]
CHIC18 pH = 2.6 [4]: 61.89
CHIC18 pH = 7.4 [4]: 108.61
CHIC18 pH = 10.6 [4]: 111.92
CHI LogP [4]: 4.58
CHIIAM [5]: 46.73
LogKHSA [6]: 1.71
%HSA [6]: 99.06%
